According to patent US6525001B1, “Substituted pyrimidine and pyridine herbicides” (Mid-American Commercialization Corporation, priority 1997, dated 2003):

Tests used:
Assay type in all cases: in vivo
Parameters in all cases: key: 0 is no effect; 10 is complete control
[1] = tested on: bamyardgrass (Echinochloa crus-galli); test: Test B flood test
Method: (§1) At the same time, these crop and weed species were also treated with postemergence applications of test chemicals formulated in the same manner. Plants ranged in height from 2 to 18 cm (1- to 4-leaf stage) for postemergence treatments. Plant species in the flood test consisted of rice (Oryza sativa), smallflower flatsedge (Cyperus difformis), duck salad (Heteranthera limosa) and bamyardgrass (Echinochloa crus-galli) grown to the 2-leaf stage for testing. Treated plants and controls were maintained in a greenhouse for twelve to sixteen days, after which all species were compared to controls and visually evaluated. Plant response ratings, summarized in Table B, are based on a scale of 0 to 10 where 0 is no effect and 10 is complete control. A dash (−) response means no test result.

rice (Oryza sativa) = test: Test B flood test
Method: as §1

[2] = tested on: duck salad (Heteranthera limosa); test: Test B flood test
Method: as §1

[3] = tested on: smallflower flatsedge (Cyperus difformis); test: Test B flood test
Method: as §1

rape (Brassica napus) = test: Test B pre-/postemergence; conditions: for Plant response rating, Rape: Preemergence; for Rape plant response rating: Postemergence
From the text: (§2) Seeds of bedstraw (Galium aparine), blackgrass (Alopecurus myosuroides), broadleaf signalgrass (Brachiaria decumbens), cocklebur (Xanthium strumarium), corn (Zea mays), crabgrass (Digitaria sanguinalis), giant foxtail (Setaria faberii), lambsquarters (Chenopodium album), momingglory (Ipomoea hederacea), pigweed (Amaranthus retroflexus), rape (Brassica napus), soybean (Glycine max), sugar beet (Beta vulgaris), velvetleaf (Abutilon theophrasti), wheat (Triticum aestivum), wild oat (Avena fatua) and purple nutsedge (Cyperus rotundus) tubers were planted and treated preemergence with test chemicals formulated in a non-phytotoxic solvent mixture which included a surfactant.
as §1

[4] = tested on: blackgrass (Alopecurus myosuroides); test: Test B pre-/postemergence; conditions: for Plant response rating, Blackgrass: Preemergence; for Blackgrass plant response rating: Postemergence
From the text: as §2, §1

[5] = tested on: velvetleaf (Abutilon theophrasti); test: Test B pre-/postemergence; conditions: for Velvetleaf plant response rating: Postemergence
From the text: as §2, §1

[6] = tested on: momingglory (Ipomoea hederacea); test: Test B pre-/postemergence; conditions: for Plant response rating, Morningglory: Preemergence; for Morningglory plant response rating: Postemergence
From the text: as §2, §1

soybean (Glycine max) = test: Test B pre-/postemergence; conditions: for Plant response rating, Soybean: Preemergence; for Soybean plant response rating: Postemergence
From the text: as §2, §1

[7] = tested on: broadleaf signalgrass (Brachiaria decumbens); test: Test B pre-/postemergence
From the text: as §2, §1

[8] = tested on: crabgrass (Digitaria sanguinalis); test: Test B pre-/postemergence; conditions: for Plant response rating, Crabgrass: Preemergence; for Crabgrass plant response rating: Postemergence
From the text: as §2, §1

[9] = tested on: pigweed (Amaranthus retroflexus); test: Test B pre-/postemergence; conditions: for Plant response rating, Redroot pigweed: Preemergence; for Redroot pigweed plant response rating: Postemergence
From the text: as §2, §1

[10] = tested on: sugar beet (Beta vulgaris); test: Test B pre-/postemergence; conditions: for Plant response rating, Sugarbeets: Preemergence; for Sugarbeets plant response rating: Postemergence
From the text: as §2, §1

[11] = tested on: giant foxtail (Setaria faberii); test: Test B pre-/postemergence; conditions: for Plant response rating, Giant foxtail: Preemergence; for Giant foxtail plant response rating: Postemergence
From the text: as §2, §1

[12] = tested on: wheat (Triticum aestivum); test: Test B pre-/postemergence; conditions: for Plant response rating, Wheat: Preemergence; for Wheat plant response rating: Postemergence
From the text: as §2, §1

[13] = tested on: cocklebur (Xanthium strumarium); test: Test B pre-/postemergence; conditions: for Cocklebur plant response rating: Postemergence
From the text: as §2, §1

corn (Zea mays) = test: Test B pre-/postemergence; conditions: for Plant response rating, Corn: Preemergence; for Corn plant response rating: Postemergence
From the text: as §2, §1

[14] = tested on: bedstraw (Galium aparine); test: Test B pre-/postemergence; conditions: Rate 125 g/ha, Preemergence
From the text: as §2, §1

wild oat (Avena fatua) = test: Test B pre-/postemergence; conditions: for Plant response rating, Wild oats: Preemergence; for Wild oats plant response rating: Postemergence
From the text: as §2, §1

[15] = Rate 62 g/ha, Postemergence (flood test)
[16] = Rate 125 g/ha, Postemergence section (flood test species)
[17] = Rate 250 g/ha, Postemergence (flood test species)

CCc1cnc(-n2cnc(C(F)(F)F)c2)nc1C(=O)c1cccc(OC(F)(F)F)c1 [Compound 71]
Barnyardgrass plant response rating [1, 15]: 2 | Barnyardgrass plant response rating [1, 16]: 2 | Plant response rating, Barnyardgrass [1, 17]: 3 | Rice plant response rating (rice (Oryza sativa); [15]): 2 | Rice plant response rating (rice (Oryza sativa); [16]): 2 | Plant response rating, Rice (rice (Oryza sativa); [17]): 2 | Ducksalad plant response rating [2, 15]: 0 | Ducksalad plant response rating [2, 16]: 0 | Plant response rating, Ducksalad [2, 17]: 2 | S. Flatsedge plant response rating [3, 15]: 0 | S. Flatsedge plant response rating [3, 16]: 2 | Plant response rating, S. Flatsedge [3, 17]: 4 | Plant response rating, Rape (rape (Brassica napus); Rate 62 g/ha, scale of 0 to 10): 2 | Rape plant response rating (rape (Brassica napus); Rate 62 g/ha): 5 | Rape plant response rating (rape (Brassica napus); Rate 125 g/ha): 7 | Plant response rating, Rape (rape (Brassica napus); Rate 125 g/ha): 7 | Plant response rating, Blackgrass ([4]; Rate 62 g/ha, scale of 0 to 10): 1 | Blackgrass plant response rating ([4]; Rate 62 g/ha): 2 | Blackgrass plant response rating ([4]; Rate 125 g/ha): 3 | Plant response rating, Blackgrass ([4]; Rate 125 g/ha): 2 | Velvetleaf plant response rating ([5]; Rate 62 g/ha): 3 | Velvetleaf plant response rating ([5]; Rate 125 g/ha): 6 | Plant response rating, Velvetleaf ([5]; Rate 125 g/ha, Preemergence): 6 | Plant response rating, Morningglory ([6]; Rate 62 g/ha, scale of 0 to 10): 2 | Morningglory plant response rating ([6]; Rate 62 g/ha): 1 | Morningglory plant response rating ([6]; Rate 125 g/ha): 6 | Plant response rating, Morningglory ([6]; Rate 125 g/ha): 4 | Plant response rating, Soybean (soybean (Glycine max); Rate 62 g/ha, scale of 0 to 10): 0 | Soybean plant response rating (soybean (Glycine max); Rate 62 g/ha): 3 | Soybean plant response rating (soybean (Glycine max); Rate 125 g/ha): 4 | Plant response rating, Soybean (soybean (Glycine max); Rate 125 g/ha): 0 | B. signalgrass plant response rating ([7]; Rate 62 g/ha, Postemergence): 2 | B. signalgrass plant response rating ([7]; Rate 62 g/ha, Preemergence): 0 | B. signalgrass plant response rating ([7]; Rate 125 g/ha, Postemergence): 2 | Plant response rating, B. signalgrass ([7]; Rate 125 g/ha, Preemergence): 2 | Plant response rating, Crabgrass ([8]; Rate 62 g/ha, scale of 0 to 10): 2 | Crabgrass plant response rating ([8]; Rate 62 g/ha): 2 | Crabgrass plant response rating ([8]; Rate 125 g/ha): 3 | Plant response rating, Crabgrass ([8]; Rate 125 g/ha): 2 | Plant response rating, Redroot pigweed ([9]; Rate 62 g/ha, scale of 0 to 10): 6 | Redroot pigweed plant response rating ([9]; Rate 62 g/ha): 8 | Redroot pigweed plant response rating ([9]; Rate 125 g/ha): 8 | Plant response rating, Redroot pigweed ([9]; Rate 125 g/ha): 8 | Plant response rating, Sugarbeets ([10]; Rate 62 g/ha, scale of 0 to 10): 2 | Sugarbeets plant response rating ([10]; Rate 62 g/ha): 8 | Sugarbeets plant response rating ([10]; Rate 125 g/ha): 8 | Plant response rating, Sugarbeets ([10]; Rate 125 g/ha): 3 | Plant response rating, Giant foxtail ([11]; Rate 62 g/ha, scale of 0 to 10): 1 | Giant foxtail plant response rating ([11]; Rate 62 g/ha): 2 | Giant foxtail plant response rating ([11]; Rate 125 g/ha): 2 | Plant response rating, Giant foxtail ([11]; Rate 125 g/ha): 2 | Plant response rating, Wheat ([12]; Rate 62 g/ha, scale of 0 to 10): 1 | Wheat plant response rating ([12]; Rate 62 g/ha): 4 | Wheat plant response rating ([12]; Rate 125 g/ha): 4 | Plant response rating, Wheat ([12]; Rate 125 g/ha): 3 | Cocklebur plant response rating ([13]; Rate 62 g/ha): 4 | Cocklebur plant response rating ([13]; Rate 125 g/ha): 4 | Plant response rating, Cocklebur ([13]; Rate 125 g/ha, Preemergence): 0 | Plant response rating, Corn (corn (Zea mays); Rate 62 g/ha, scale of 0 to 10): 1 | Corn plant response rating (corn (Zea mays); Rate 62 g/ha): 2 | Corn plant response rating (corn (Zea mays); Rate 125 g/ha): 3 | Plant response rating, Corn (corn (Zea mays); Rate 125 g/ha): 1 | Plant response rating, Bedstraw [14]: 1 | Plant response rating, Wild oats (wild oat (Avena fatua); Rate 62 g/ha, scale of 0 to 10): 0 | Wild oats plant response rating (wild oat (Avena fatua); Rate 62 g/ha): 2 | Wild oats plant response rating (wild oat (Avena fatua); Rate 125 g/ha): 2 | Plant response rating, Wild oats (wild oat (Avena fatua); Rate 125 g/ha): 3
